From US11945822B2, “Pyrazolo-triazine and/or pyrazolo-pxrimidine derivatives as selective inhibitor of cyclin dependent kinase” (QURIENT CO., LTD., priority 2018, dated 2024)

biological target: T1, CDK5/p25 (Homo sapiens, UniProt Q00535); assay: Enzymatic assay for CDK5 (FRET based LANCE Ultra kinase assay); type: biochemical; conditions: read-out: CDK5 enzymatic activity (IC50 range)
T1 construct: purchased Invitrogen PR8543B
Procedure, shortened: (§1)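 Each CDK complex ([…]) phosphorylated 68 nM ULight-MBP peptide with ATP at Km for 60 min at 23° C., against 8 compound doses (4-fold dilutions). EDTA/Eu-anti-phospho-MBP detection, 60 min, then TR-FRET emission at 615 and 665 nm.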

T1 sequence (Q00535 whole entry): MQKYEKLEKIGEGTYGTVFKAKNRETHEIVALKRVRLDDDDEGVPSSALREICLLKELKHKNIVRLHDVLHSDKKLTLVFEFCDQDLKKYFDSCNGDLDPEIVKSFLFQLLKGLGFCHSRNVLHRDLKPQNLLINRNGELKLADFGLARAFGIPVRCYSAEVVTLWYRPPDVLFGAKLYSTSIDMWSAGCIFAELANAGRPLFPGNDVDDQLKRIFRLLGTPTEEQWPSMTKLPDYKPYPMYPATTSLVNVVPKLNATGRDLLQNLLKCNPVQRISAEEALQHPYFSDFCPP
T1 sequence (Q15078 99-307 partner limits assumed): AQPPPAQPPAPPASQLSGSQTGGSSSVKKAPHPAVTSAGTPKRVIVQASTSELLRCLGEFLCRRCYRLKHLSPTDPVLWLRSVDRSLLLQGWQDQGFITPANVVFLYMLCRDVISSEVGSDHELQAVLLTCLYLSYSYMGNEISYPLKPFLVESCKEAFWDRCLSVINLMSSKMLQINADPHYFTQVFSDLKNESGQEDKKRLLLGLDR

IC50	SMILES
< 100 nM	CC(C)c1cnn2c(NCc3ccccc3-c3ccc4c(c3)NC(=O)C(C)(C)O4)nc(N3CCC(N)CC3)nc12 [Compound 138]
< 100 nM	CC(C)c1cnn2c(NCc3ccccc3-c3ccc4[nH]c(NC(=O)C5CC5)nc4c3)nc(N3CCC(N)CC3)nc12 [Compound 141]
100 to 1000 nM	CC(C)c1cnn2c(NCc3cccc4ccc(N)nc34)nc(N3CCC(N)CC3)nc12 [Compound 142]
100 to 1000 nM	CC(C)c1cnn2c(NCc3ccccc3-n3cccn3)nc(-c3ccc(C(=O)N4CCC(N)CC4)cc3)nc12 [Compound 172]

system: RPMI-8226; assay: Cellular RPMI-8226 viability assay (CellTiter-Glo, 72 hours); type: cell-based; conditions: Homo sapiens
Experimental: (§2) All cell lines were routinely tested for mycoplasma.
(§3) The effect of the CDK7 inhibitor to inhibit the growth of target cancer cells was evaluated through the 72 hours time period of viability assay. Briefly, the candidate cell line ware plated in 96 well plate at the following density of cells respectively. […] DMSO solvent without compound served as a control and final DMSO concentration less than 0.1%. After 72 hours of incubation at 37° C., 5% CO2 incubator, cells were analyzed for the viability using the CellTiter-Glo Luminescent Cell Viability Assay (Promega, Cat #G7570). All viability assays were performed in duplicate and Luminescence was read using an Envision (Perkin Elmer, USA). Data was analyzed using XLfit software.

IC50	SMILES
< 1000 nM	CC(C)c1cnn2c(NCc3ccccc3-c3ccc4c(c3)NC(=O)C(C)(C)O4)nc(N3CCC(N)CC3)nc12 [Compound 138]
< 1000 nM	CC(C)c1cnn2c(NCc3ccccc3-c3ccc4[nH]c(NC(=O)C5CC5)nc4c3)nc(N3CCC(N)CC3)nc12 [Compound 141]
1000 to 10000 nM	CC(C)c1cnn2c(NCc3cccc4ccc(N)nc34)nc(N3CCC(N)CC3)nc12 [Compound 142]

system: H460; assay: Cellular H460 viability assay (CellTiter-Glo, 72 hours); type: cell-based; conditions: Homo sapiens, NCI-H460
Procedure, shortened: (§4)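 Steps: seed cells at per-line density; add compound, DMSO vehicle kept under 0.1% final; incubate 72 h, 37 °C, 5% CO2; lyse with CellTiter-Glo and read luminescence; run in duplicate.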

IC50	SMILES
< 1000 nM	CC(C)c1cnn2c(NCc3ccccc3-c3ccc4c(c3)NC(=O)C(C)(C)O4)nc(N3CCC(N)CC3)nc12 [Compound 138]
1000 to 10000 nM	CC(C)c1cnn2c(NCc3ccccc3-c3ccc4[nH]c(NC(=O)C5CC5)nc4c3)nc(N3CCC(N)CC3)nc12 [Compound 141]
1000 to 10000 nM	CC(C)c1cnn2c(NCc3cccc4ccc(N)nc34)nc(N3CCC(N)CC3)nc12 [Compound 142]
1000 to 10000 nM	CC(C)c1cnn2c(NCc3ccccc3-n3cccn3)nc(-c3ccc(C(=O)N4CCC(N)CC4)cc3)nc12 [Compound 172]

system: MOLT-4; assay: Cellular MOLT-4 viability assay (CellTiter-Glo, 72 hours); type: cell-based; conditions: Homo sapiens, MOLT4 viability assay
Experimental: as §2, §3

IC50	SMILES
1000 to 10000 nM	CC(C)c1cnn2c(NCc3ccccc3-n3cccn3)nc(-c3ccc(C(=O)N4CCC(N)CC4)cc3)nc12 [Compound 172]

biological target: T2, CDK1/Cyclin B (Homo sapiens, UniProt P06493); assay: Enzymatic assay for CDK1 (FRET based LANCE Ultra kinase assay); type: biochemical; conditions: read-out: CDK1 enzymatic activity (IC50 range)
T2 construct: purchased Invitrogen PR4768C
Procedure, shortened: as §1

T2 sequence (P06493 whole entry): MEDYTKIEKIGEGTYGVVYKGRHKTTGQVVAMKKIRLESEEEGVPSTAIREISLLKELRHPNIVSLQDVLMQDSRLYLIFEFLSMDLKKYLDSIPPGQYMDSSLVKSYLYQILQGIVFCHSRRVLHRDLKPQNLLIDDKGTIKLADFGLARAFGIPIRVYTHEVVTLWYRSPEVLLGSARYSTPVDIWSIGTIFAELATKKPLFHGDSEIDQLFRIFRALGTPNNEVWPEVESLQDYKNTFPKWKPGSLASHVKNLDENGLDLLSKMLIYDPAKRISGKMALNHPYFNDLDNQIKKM
T2 sequence (P14635 whole entry partner): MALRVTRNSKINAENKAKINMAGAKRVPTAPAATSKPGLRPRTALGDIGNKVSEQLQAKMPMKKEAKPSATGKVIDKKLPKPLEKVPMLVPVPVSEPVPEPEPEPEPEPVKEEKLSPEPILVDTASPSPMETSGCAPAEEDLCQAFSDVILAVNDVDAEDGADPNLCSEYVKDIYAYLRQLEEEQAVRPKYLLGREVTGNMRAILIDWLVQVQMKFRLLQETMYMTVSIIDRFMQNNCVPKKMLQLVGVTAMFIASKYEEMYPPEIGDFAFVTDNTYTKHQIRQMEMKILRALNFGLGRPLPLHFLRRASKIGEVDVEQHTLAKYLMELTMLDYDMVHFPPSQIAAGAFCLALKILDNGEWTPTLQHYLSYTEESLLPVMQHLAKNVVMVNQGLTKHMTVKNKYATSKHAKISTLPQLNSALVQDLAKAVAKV

IC50	SMILES
100 to 1000 nM	CC(C)c1cnn2c(NCc3ccccc3-c3ccc4c(c3)NC(=O)C(C)(C)O4)nc(N3CCC(N)CC3)nc12 [Compound 138]
100 to 1000 nM	CC(C)c1cnn2c(NCc3ccccc3-c3ccc4[nH]c(NC(=O)C5CC5)nc4c3)nc(N3CCC(N)CC3)nc12 [Compound 141]
> 1000 nM	CC(C)c1cnn2c(NCc3cccc4ccc(N)nc34)nc(N3CCC(N)CC3)nc12 [Compound 142]
> 1000 nM	CC(C)c1cnn2c(NCc3ccccc3-n3cccn3)nc(-c3ccc(C(=O)N4CCC(N)CC4)cc3)nc12 [Compound 172]

system: HCT116; assay: Cellular HCT116 viability assay (CellTiter-Glo, 72 hours); type: cell-based; conditions: Homo sapiens, HCT-116
Procedure, shortened: as §4

IC50	SMILES
1000 to 10000 nM	CC(C)c1cnn2c(NCc3ccccc3-n3cccn3)nc(-c3ccc(C(=O)N4CCC(N)CC4)cc3)nc12 [Compound 172]

biological target: T3, CDK7/Cyclin H/MNAT1 (Homo sapiens, UniProt P50613); assay: Enzymatic assay for CDK7 (FRET based LANCE Ultra kinase assay); type: biochemical; conditions: CDK7 over CDK1
T3 construct: purchased Invitrogen PR6749B
Procedure, shortened: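 LANCE Ultra TR-FRET kinase assay using a ULight-labeled peptide substrate and a Eu-labeled anti-phospho antibody, with ATP at its Km. Purified CDK/cyclin complex was added to compound after brief centrifugation.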

T3 sequence (P50613 whole entry): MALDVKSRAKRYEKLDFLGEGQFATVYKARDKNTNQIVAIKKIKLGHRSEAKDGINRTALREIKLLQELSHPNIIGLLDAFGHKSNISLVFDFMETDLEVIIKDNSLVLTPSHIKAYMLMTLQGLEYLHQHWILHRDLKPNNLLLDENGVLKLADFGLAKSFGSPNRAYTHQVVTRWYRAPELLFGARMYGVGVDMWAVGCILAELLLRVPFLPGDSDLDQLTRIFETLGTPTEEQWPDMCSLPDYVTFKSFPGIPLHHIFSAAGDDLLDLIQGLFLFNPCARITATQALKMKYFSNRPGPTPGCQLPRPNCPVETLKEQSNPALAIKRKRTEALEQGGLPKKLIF
T3 sequence (P51946 whole entry partner): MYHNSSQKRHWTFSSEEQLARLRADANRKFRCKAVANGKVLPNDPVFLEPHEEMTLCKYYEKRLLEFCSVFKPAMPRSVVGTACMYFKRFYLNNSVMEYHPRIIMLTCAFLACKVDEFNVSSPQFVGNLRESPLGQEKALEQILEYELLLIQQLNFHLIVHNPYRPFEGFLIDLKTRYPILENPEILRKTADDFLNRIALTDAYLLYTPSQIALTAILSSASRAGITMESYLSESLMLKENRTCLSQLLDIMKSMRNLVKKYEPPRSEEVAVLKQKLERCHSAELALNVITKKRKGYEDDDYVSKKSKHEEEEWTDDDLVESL
T3 sequence (P51948 whole entry partner): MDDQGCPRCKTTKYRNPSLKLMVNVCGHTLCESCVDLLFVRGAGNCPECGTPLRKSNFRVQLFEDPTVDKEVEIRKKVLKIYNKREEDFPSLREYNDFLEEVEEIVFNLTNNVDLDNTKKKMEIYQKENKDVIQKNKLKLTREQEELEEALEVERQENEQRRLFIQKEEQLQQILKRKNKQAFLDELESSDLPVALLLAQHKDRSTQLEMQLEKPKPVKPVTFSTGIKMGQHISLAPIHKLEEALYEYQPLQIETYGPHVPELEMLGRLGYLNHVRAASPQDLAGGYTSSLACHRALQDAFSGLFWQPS

CDK1/CDK7: Selectivity of CDK7 inhibition over CDK1 inhibition	SMILES
A (A=greater than 200 fold)	CC(C)c1cnn2c(NCc3ccccc3-c3ccc4c(c3)NC(=O)C(C)(C)O4)nc(N3CCC(N)CC3)nc12 [Compound 138]
A (A=greater than 200 fold)	CC(C)c1cnn2c(NCc3cccc4ccc(N)nc34)nc(N3CCC(N)CC3)nc12 [Compound 142]
A (A=greater than 200 fold)	CC(C)c1cnn2c(NCc3ccccc3-n3cccn3)nc(-c3ccc(C(=O)N4CCC(N)CC4)cc3)nc12 [Compound 172]

SMILES	CDK1/CDK7: Selectivity of CDK7 inhibition over CDK1 inhibition
CC(C)c1cnn2c(NCc3ccccc3-c3ccc4[nH]c(NC(=O)C5CC5)nc4c3)nc(N3CCC(N)CC3)nc12 [Compound 141]	B (B=less than 200 fold, but greater than 20 fold)

same assay, conditions: CDK7 over CDK2

SMILES	CDK2/CDK7: Selectivity of CDK7 inhibition over CDK2 inhibition
CC(C)c1cnn2c(NCc3ccccc3-c3ccc4c(c3)NC(=O)C(C)(C)O4)nc(N3CCC(N)CC3)nc12 [Compound 138]	B (B=less than 200 fold, but greater than 20 fold)
CC(C)c1cnn2c(NCc3ccccc3-c3ccc4[nH]c(NC(=O)C5CC5)nc4c3)nc(N3CCC(N)CC3)nc12 [Compound 141]	B (B=less than 200 fold, but greater than 20 fold)
CC(C)c1cnn2c(NCc3cccc4ccc(N)nc34)nc(N3CCC(N)CC3)nc12 [Compound 142]	B (B=less than 200 fold, but greater than 20 fold)
CC(C)c1cnn2c(NCc3ccccc3-n3cccn3)nc(-c3ccc(C(=O)N4CCC(N)CC4)cc3)nc12 [Compound 172]	B (B=less than 200 fold, but greater than 20 fold)

same assay, conditions: CDK7 over CDK5

SMILES	CDK5/CDK7: Selectivity of CDK7 inhibition over CDK5 inhibition
CC(C)c1cnn2c(NCc3ccccc3-c3ccc4c(c3)NC(=O)C(C)(C)O4)nc(N3CCC(N)CC3)nc12 [Compound 138]	C (C=less than 20 fold)
CC(C)c1cnn2c(NCc3ccccc3-c3ccc4[nH]c(NC(=O)C5CC5)nc4c3)nc(N3CCC(N)CC3)nc12 [Compound 141]	C (C=less than 20 fold)
CC(C)c1cnn2c(NCc3cccc4ccc(N)nc34)nc(N3CCC(N)CC3)nc12 [Compound 142]	B (B=less than 200 fold, but greater than 20 fold)
CC(C)c1cnn2c(NCc3ccccc3-n3cccn3)nc(-c3ccc(C(=O)N4CCC(N)CC4)cc3)nc12 [Compound 172]	B (B=less than 200 fold, but greater than 20 fold)

same assay, conditions: read-out: CDK7 enzymatic activity (IC50 range)

IC50	SMILES
< 100 nM	CC(C)c1cnn2c(NCc3ccccc3-c3ccc4c(c3)NC(=O)C(C)(C)O4)nc(N3CCC(N)CC3)nc12 [Compound 138]
< 100 nM	CC(C)c1cnn2c(NCc3ccccc3-c3ccc4[nH]c(NC(=O)C5CC5)nc4c3)nc(N3CCC(N)CC3)nc12 [Compound 141]
< 100 nM	CC(C)c1cnn2c(NCc3cccc4ccc(N)nc34)nc(N3CCC(N)CC3)nc12 [Compound 142]
< 100 nM	CC(C)c1cnn2c(NCc3ccccc3-n3cccn3)nc(-c3ccc(C(=O)N4CCC(N)CC4)cc3)nc12 [Compound 172]

biological target: T4, CDK2/Cyclin A (Homo sapiens, UniProt P24941); assay: Enzymatic assay for CDK2 (FRET based LANCE Ultra kinase assay); type: biochemical; conditions: read-out: CDK2 enzymatic activity (IC50 range)
T4 construct: purchased Invitrogen PV6290
Procedure, shortened: as §1

IC50	SMILES
100 to 1000 nM	CC(C)c1cnn2c(NCc3ccccc3-c3ccc4c(c3)NC(=O)C(C)(C)O4)nc(N3CCC(N)CC3)nc12 [Compound 138]
100 to 1000 nM	CC(C)c1cnn2c(NCc3ccccc3-c3ccc4[nH]c(NC(=O)C5CC5)nc4c3)nc(N3CCC(N)CC3)nc12 [Compound 141]
100 to 1000 nM	CC(C)c1cnn2c(NCc3cccc4ccc(N)nc34)nc(N3CCC(N)CC3)nc12 [Compound 142]
100 to 1000 nM	CC(C)c1cnn2c(NCc3ccccc3-n3cccn3)nc(-c3ccc(C(=O)N4CCC(N)CC4)cc3)nc12 [Compound 172]
